Experimental data from patent US10308686B2, “Gamma-AApeptides with potent and broad-spectrum antimicrobial activity” (priority 2012, dated 2019).
≈ marks a conversion by molar mass, not a printed value.

Experiments:
[1] = tested on: K. pneumoniae (ATCC 13383)
[2] = tested on: multi-drug resistant S. epidermidis (RP62A); details: Table 7
[3] = tested on: multi-drug resistant P. aeruginosa ATCC 27853; details: ATCC 27853
[4] = tested on: vancomycin-resistant E. faecalis (ATCC 700802); details: Table 7
[5] = tested on: methicillin-resistant S. aureus (ATCC 33592); details: Table 7
C. albicans (ATCC 10231) = details: ATCC 10231
[6] = tested on: human red blood cells (hRBC's); test: Hemolysis assay; format: cell-based; details: red cells of human
Method: Freshly drawn human red blood cells (hRBC's) with additive K2 EDTA (spray-dried) were washed with PBS buffer several times and centrifuged at 1000 g for 10 min until a clear supernatant was observed. The hRBC's were resuspended in 1×PBS to get a 5% v/v suspension. Two-fold serial dilutions of γ-AApeptides dissolved in 1×PBS from 250 μg/ml through 1.6 μg/ml were added to a sterile 96-well plate to make up a total volume of 50 μL in each well. Then 50 μL of 5% v/v hRBC solution was added to make up a total volume of 100 μL in each well. The 0% hemolysis point and 100% hemolysis point were determined in 1×PBS and 0.2% Triton-X-100, respectively (Patch et al., 2003). The plate was then incubated at 37° C. for 1 h and centrifuged at 3500 rpm for 10 min. The supernatant (30 μL) was diluted with 100 μL of 1×PBS and absorption was detected by measuring the optical density at 360 nm by Biotek Synergy HT microtiter plate reader. % hemolysis was determined by the following equation: % hemolysis=(Abssample−AbsPBS)/(AbsTriton−AbsPBS)×100 H50 is the concentration of γ-AApeptide amphiphiles at which 50% hemolysis was observed. The highest concentration tested in the hemolytic assay was 500 μg/ml. 7. Fluorescence Microscopy
The sequences shown in FIG. 12 were also evaluated via hemolytic assays. Freshly drawn human red blood cells (hRBC's) with additive K2 EDTA (spray-dried) were washed with PBS buffer several times and centrifuged at 1000 g for 10 min until a clear supernatant was observed. The hRBC's were resuspended in 1×PBS to get a 5% v/v suspension. Two-fold serial dilutions of lipidated γ-AApeptides dissolved in 1×PBS from 1 mg/ml through 6.3 μg/ml were added to sterile 96-well plates to make up a total volume of 50 μL in each well. Then 50 μL of 5% v/v hRBC solution was added to make up a total volume of 100 μL in each well. The 0% hemolysis point and 100% hemolysis point were determined in 1×PBS and 0.2% Triton-X-100, respectively (Patch et al., 2003). The plate was then incubated at 37° C. for 1 h and centrifuged at 3500 rpm for 10 min. The supernatant (30 μL) was diluted with 100 μL of 1×PBS and absorption was detected by measuring the optical density at 360 nm with a Biotek Synergy HT microtiter plate reader. % hemolysis was determined by the following equation: % hemolysis=(Abs sample−Abs PBS)/(Abs Triton−Abs PBS)×100

| Compound | MIC, Gram negative K. pneumoniae [1] [µg/mL] | MIC, Gram positive S. epidermidis [2] [µg/mL] | MIC, Gram positive B. subtilis (B. subtilis (BR151)) [µg/mL] | MIC, Gram negative E. coli (E. coli (JM109)) [µg/mL] | MIC, Gram negative P. aeruginosa [3] [µg/mL] | MIC, Gram positive E. faecalis [4] [µg/mL] | MIC, Gram positive S. aureus [5] [µg/mL] | MIC, Fungi, C. albicans (C. albicans (ATCC 10231)) [µg/mL] | Hemolysis HC10 [6] [µg/mL] | Hemolysis HC50 [6] [µg/mL] |
| --- | --- | --- | --- | --- | --- | --- | --- | --- | --- | --- |
| CCCCCCCC/C=C\CCCCCCCC(=O)N[C@@H](CCCCN)CN(CC(=O)N[C@@H](CCCCN)CN(CC(N)=O)C(=O)CCCN)C(=O)CCCN [Sequence 12] | 15 (≈ 18.9 µM) | 4 (≈ 5.04 µM) | 2.5 (≈ 3.15 µM) | 10 (≈ 12.6 µM) | 3 (≈ 3.78 µM) | 5 (≈ 6.3 µM) | 5 (≈ 6.3 µM) | 2 (≈ 2.52 µM) | 250 | > 500 |
| CCCCCCCCCCCCCCCC(=O)N[C@@H](CCCCN)CN(CC(=O)N[C@@H](CCCCN)CN(CC(N)=O)C(=O)CCCN)C(=O)CCCN [Sequence 3] | 20 (≈ 26 µM) | 2.5 (≈ 3.25 µM) | 1.5 (≈ 1.95 µM) | 30 (≈ 39.1 µM) | 20 (≈ 26 µM) | 8 (≈ 10.4 µM) | 5 (≈ 6.51 µM) | 2 (≈ 2.6 µM) | 40 | 300 |
| CCCCCCCC/C=C\CCCCCCCC(=O)N[C@@H](CCCCN)CN(CC(N)=O)C(=O)CCCN [Sequence 10] | 35 (≈ 65.1 µM) | 2 (≈ 3.72 µM) | 2 (≈ 3.72 µM) | 2.5 (≈ 4.65 µM) | 3 (≈ 5.58 µM) | 2.5 (≈ 4.65 µM) | 4 (≈ 7.44 µM) | 2 (≈ 3.72 µM) | 40 | 100 |
| CCCCCCCCCCCCCCCC(=O)N[C@@H](C)CN(CC(=O)N[C@@H](C)CN(CC(=O)N[C@@H](Cc1ccccc1)CN(CC(=O)N[C@@H](Cc1ccccc1)CN(CC(=O)N[C@@H](Cc1ccccc1)CN(CC(N)=O)C(=O)CC(=O)O)C(=O)CC(=O)O)C(=O)CC(=O)O)C(C)=O)C(C)=O [Sequence 8] | >100 | >100 | >100 | >100 | >100 | >100 | >100 | >100 | 200 | > 500 |
| CCCCCCCC/C=C\CCCCCCCC(=O)N[C@@H](CCCCN)C(=O)N[C@@H](CCCCN)CN(CC(N)=O)C(=O)CCCN [Sequence 11] | 40 (≈ 60.1 µM) | 2 (≈ 3 µM) | 2 (≈ 3 µM) | 10 (≈ 15 µM) | 15 (≈ 22.5 µM) | 2.5 (≈ 3.75 µM) | 5 (≈ 7.51 µM) | 5 (≈ 7.51 µM) | 80 | > 500 |
